The target of experiment [1] is Calcium/calmodulin-dependent protein kinase type II subunit gamma (Homo sapiens, UniProt Q13555).
The target of experiment [2] is T1, Discoidin domain-containing receptor 2 (Homo sapiens, UniProt Q16832).
T1 sequence (Q16832 whole entry): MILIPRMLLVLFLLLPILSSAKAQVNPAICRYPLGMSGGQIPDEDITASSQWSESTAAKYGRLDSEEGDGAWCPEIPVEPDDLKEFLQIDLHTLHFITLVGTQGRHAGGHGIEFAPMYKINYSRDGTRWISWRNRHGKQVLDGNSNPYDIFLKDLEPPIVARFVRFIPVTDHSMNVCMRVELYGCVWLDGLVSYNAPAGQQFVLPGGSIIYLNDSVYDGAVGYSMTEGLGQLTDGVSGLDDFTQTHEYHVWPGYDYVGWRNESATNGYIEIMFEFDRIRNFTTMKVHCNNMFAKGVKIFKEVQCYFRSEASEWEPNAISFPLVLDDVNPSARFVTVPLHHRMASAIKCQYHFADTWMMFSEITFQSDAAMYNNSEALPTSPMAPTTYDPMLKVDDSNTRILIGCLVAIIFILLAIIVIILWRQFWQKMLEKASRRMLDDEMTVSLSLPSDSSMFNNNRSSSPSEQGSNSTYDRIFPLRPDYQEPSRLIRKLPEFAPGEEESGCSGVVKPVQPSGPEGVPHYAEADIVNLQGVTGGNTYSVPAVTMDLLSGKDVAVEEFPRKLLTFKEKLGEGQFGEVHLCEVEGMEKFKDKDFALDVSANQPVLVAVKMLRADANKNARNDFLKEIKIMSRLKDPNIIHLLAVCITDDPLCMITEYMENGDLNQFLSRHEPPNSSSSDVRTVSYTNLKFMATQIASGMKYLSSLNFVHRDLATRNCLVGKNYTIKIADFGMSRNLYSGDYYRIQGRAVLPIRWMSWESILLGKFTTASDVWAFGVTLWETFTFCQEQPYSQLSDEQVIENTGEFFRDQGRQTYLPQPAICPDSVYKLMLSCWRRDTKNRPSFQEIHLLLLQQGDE

Experiment [3] has as its target Tyrosine-protein kinase Lyn (Homo sapiens, UniProt P07948).
Experiment [4] concerns the target T2, Dual specificity mitogen-activated protein kinase kinase 6 (Homo sapiens, UniProt P52564).
T2 sequence (P52564 whole entry): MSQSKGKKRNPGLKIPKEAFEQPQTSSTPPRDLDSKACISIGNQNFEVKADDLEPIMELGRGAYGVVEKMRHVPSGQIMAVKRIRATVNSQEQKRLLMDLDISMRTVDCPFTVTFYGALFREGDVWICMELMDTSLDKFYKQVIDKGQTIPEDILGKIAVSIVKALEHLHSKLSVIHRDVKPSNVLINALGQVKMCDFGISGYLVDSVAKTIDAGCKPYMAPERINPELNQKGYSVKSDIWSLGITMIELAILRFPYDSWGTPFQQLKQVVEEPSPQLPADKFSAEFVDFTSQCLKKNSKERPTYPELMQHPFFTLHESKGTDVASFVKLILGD

Experiment [5] has as its target Mitogen-activated protein kinase kinase kinase kinase 1 (Homo sapiens, UniProt Q92918).
Experiment [6] has as its target T3, Mitogen-activated protein kinase kinase kinase kinase 2 (Homo sapiens, UniProt Q12851).
T3 sequence (Q12851 whole entry): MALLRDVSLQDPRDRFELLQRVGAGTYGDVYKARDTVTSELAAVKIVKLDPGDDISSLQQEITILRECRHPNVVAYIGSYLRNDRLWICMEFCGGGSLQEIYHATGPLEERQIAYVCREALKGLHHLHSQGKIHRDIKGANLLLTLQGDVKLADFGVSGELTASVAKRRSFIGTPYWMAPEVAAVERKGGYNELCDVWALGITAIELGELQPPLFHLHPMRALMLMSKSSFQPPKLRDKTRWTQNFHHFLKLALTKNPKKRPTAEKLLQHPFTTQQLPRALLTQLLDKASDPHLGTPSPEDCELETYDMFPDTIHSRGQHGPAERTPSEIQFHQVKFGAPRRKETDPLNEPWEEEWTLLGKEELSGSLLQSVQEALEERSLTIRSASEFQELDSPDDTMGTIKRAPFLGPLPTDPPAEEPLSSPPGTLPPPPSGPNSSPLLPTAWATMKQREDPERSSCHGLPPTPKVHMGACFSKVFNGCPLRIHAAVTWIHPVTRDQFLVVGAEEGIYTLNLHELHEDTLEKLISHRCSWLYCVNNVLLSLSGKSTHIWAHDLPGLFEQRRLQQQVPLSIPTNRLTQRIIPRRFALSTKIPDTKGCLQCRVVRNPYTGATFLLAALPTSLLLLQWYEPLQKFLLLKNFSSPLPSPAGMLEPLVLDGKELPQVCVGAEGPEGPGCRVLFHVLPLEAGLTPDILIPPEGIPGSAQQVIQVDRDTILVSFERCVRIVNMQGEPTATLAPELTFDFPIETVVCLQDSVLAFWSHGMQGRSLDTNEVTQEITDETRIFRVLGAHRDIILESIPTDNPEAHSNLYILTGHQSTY

The target of experiment [7] is Ribosomal protein S6 kinase alpha-6 (Homo sapiens, UniProt Q9UK32).
For experiment [8], the target named is Serine/threonine-protein kinase 26 (Homo sapiens, UniProt Q9P289).
In experiment [9] the target is T4, EKC/KEOPS complex subunit TP53RK (Homo sapiens, UniProt Q96S44).
T4 sequence (Q96S44 whole entry): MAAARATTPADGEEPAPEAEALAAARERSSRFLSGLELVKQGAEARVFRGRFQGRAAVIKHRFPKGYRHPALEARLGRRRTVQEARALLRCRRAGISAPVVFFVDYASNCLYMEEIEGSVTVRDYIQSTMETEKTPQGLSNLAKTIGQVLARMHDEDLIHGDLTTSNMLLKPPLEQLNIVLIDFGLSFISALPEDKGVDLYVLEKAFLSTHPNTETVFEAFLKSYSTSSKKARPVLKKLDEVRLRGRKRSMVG

Activity calls are given as the source filed them. For most assays here, no stated cut-off is given here; in the data, actives have a measured Kd and inactives only a lower limit. Bounds are passed on as bounds.

Results on eleven compounds are retold here after ChEMBL document CHEMBL3991601, “The target landscape of clinical kinase drugs” (Science, 2017).

Sequence of Mitogen-activated protein kinase kinase kinase kinase 1 (Q92918 whole entry): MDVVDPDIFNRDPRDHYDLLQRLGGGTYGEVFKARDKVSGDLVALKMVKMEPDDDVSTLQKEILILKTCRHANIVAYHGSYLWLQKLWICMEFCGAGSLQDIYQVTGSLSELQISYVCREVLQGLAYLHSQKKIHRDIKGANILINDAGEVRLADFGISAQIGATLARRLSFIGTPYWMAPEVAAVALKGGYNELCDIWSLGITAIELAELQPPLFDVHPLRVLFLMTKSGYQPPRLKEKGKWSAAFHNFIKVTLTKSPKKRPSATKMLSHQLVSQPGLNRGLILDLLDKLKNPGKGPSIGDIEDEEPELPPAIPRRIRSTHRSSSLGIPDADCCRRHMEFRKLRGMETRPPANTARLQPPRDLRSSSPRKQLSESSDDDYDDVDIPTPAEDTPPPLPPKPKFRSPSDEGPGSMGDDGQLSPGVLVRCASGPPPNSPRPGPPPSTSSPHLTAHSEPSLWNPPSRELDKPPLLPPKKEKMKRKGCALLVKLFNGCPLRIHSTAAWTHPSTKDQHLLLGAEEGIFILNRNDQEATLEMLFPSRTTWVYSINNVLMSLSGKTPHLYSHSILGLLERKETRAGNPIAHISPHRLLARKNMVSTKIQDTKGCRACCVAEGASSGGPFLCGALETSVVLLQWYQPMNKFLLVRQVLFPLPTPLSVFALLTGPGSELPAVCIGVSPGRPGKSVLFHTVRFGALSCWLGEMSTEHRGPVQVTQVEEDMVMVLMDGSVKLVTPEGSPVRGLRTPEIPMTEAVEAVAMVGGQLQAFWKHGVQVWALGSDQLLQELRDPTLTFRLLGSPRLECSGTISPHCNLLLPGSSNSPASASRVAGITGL
Sequence of Calcium/calmodulin-dependent protein kinase type II subunit gamma (Q13555 whole entry, the tested form may be a part): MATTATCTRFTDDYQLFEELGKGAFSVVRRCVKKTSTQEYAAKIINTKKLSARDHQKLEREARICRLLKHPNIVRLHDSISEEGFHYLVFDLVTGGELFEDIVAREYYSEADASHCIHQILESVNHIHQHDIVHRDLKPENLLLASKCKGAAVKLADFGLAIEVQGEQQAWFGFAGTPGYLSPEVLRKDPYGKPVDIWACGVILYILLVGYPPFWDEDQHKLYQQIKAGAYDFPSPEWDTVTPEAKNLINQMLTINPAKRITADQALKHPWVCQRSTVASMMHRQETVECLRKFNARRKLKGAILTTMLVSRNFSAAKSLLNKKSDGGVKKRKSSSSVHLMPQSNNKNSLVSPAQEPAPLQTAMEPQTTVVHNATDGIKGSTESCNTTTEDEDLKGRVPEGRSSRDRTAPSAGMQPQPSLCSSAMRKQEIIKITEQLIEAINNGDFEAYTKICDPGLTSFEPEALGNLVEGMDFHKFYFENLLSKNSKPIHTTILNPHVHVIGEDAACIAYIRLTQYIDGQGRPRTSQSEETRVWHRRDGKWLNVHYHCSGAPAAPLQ
Sequence of Tyrosine-protein kinase Lyn (P07948 whole entry): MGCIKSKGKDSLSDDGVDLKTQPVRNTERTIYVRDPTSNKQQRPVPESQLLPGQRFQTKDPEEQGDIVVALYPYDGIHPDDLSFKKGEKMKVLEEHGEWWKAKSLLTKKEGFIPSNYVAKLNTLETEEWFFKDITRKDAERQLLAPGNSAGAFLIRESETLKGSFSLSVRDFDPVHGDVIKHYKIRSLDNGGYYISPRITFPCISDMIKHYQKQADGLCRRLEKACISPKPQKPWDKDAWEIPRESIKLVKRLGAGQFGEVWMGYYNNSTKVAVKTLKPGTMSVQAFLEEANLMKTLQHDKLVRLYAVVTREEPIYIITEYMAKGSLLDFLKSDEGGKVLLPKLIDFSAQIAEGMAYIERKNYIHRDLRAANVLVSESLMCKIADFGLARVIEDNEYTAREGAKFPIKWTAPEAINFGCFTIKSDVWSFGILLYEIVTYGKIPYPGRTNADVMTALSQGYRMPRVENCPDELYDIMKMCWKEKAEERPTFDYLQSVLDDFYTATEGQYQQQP
Sequence of Serine/threonine-protein kinase 26 (Q9P289 whole entry): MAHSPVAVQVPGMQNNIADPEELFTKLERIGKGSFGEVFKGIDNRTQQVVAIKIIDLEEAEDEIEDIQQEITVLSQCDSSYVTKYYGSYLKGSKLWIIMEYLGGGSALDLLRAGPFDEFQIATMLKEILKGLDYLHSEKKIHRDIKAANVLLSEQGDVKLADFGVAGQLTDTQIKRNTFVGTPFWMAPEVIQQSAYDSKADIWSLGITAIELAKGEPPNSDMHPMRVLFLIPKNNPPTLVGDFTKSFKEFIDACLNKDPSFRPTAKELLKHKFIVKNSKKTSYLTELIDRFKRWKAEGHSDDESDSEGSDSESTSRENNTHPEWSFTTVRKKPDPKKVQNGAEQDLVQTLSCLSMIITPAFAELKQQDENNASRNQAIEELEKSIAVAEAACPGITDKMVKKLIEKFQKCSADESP
Sequence of Ribosomal protein S6 kinase alpha-6 (Q9UK32 whole entry): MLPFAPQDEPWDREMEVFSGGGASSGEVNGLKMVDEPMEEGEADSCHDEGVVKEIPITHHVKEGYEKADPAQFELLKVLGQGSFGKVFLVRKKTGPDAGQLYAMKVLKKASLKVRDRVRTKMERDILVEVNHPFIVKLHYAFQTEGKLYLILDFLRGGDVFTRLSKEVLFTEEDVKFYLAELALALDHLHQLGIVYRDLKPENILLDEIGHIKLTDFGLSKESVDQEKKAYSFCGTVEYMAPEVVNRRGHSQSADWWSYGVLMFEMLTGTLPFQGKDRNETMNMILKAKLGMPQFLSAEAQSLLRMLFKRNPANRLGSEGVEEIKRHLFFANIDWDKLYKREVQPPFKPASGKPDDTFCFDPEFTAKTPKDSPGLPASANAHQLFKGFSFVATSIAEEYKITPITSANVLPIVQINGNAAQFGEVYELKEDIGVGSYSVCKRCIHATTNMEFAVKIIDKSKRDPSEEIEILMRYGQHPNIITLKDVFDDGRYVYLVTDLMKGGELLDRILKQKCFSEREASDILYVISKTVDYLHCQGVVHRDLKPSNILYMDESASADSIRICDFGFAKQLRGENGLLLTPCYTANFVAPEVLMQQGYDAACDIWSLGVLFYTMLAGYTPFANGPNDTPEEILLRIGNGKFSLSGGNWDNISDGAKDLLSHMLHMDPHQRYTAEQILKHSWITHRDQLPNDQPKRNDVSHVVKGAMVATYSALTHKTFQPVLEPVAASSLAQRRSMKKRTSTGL

As a reminder, the Kd is the concentration at which binding is half-saturated. Consider `COc1cccc(Nc2ncnn3ccc(CN4CC[C@@H](N)[C@H](O)C4)c23)c1` [BMS-690514], for which the Kd in experiment [1] is 0.738 µM (active); in experiment [2], > 30 µM (inactive); in experiment [3], 0.887 µM (active); in experiment [4], > 30 µM (inactive); in experiment [5], > 30 µM (inactive); in experiment [6], > 30 µM (inactive). In addition, the Kd in experiment [7], in [8] and in [9] was > 30 µM (inactive) in each case.

Turning to `S=C(NCc1ccc2c(c1)OCO2)N1CCN(c2ncnc3c2oc2ccccc23)CC1` [AMUVATINIB], the Kd in experiment [1], in [2], in experiment [3], in experiment [4], in experiment [5] and in experiment [6] was > 30 µM (inactive) in each case. Besides, the Kd in experiment [7], in experiment [8] and in [9] was > 30 µM (inactive) each time.

For `COc1cc(F)c(F)c(Nc2ccc(I)cc2F)c1NS(=O)(=O)C1(C[C@H](O)CO)CC1` [REFAMETINIB], the Kd in [1], in experiment [2], in [3], in [4], in [5] and in experiment [6] was > 30 µM (inactive) each time. The Kd in experiment [7], in [8] and in experiment [9] was > 30 µM (inactive) throughout.

With `Cc1ccc(C(=O)Nc2ccc(Oc3cc4cnn(C)c4cc3-c3cn[nH]c3)c(F)c2)c(=O)n1-c1ccc(F)cc1` [MERESTINIB], the Kd in experiment [1] was > 30 µM (inactive); in experiment [2], 0.908 µM (active); in [3] it was > 30 µM (inactive); in experiment [4] it was > 30 µM (inactive); in experiment [5] it was > 30 µM (inactive); in [6] it was > 30 µM (inactive). The Kd in experiment [7], in experiment [8] and in [9] was > 30 µM (inactive) each time.

Regarding `C=CC(=O)Nc1cccc(Nc2nc(Nc3ccc(N4CCN(C(C)=O)CC4)cc3OC)ncc2C(F)(F)F)c1` [ROCILETINIB], the Kd in [1], in experiment [2], in experiment [3], in experiment [4], in [5] and in experiment [6] was > 30 µM (inactive) in each case. The Kd in experiment [7], in [8] and in experiment [9] was > 30 µM (inactive) in each case.

In the case of `C=CC(=O)Nc1cc(Nc2nccc(-c3cn(C)c4ccccc34)n2)c(OC)cc1N(C)CCN(C)C` [OSIMERTINIB], the Kd in experiment [1], in experiment [2], in experiment [3], in [4], in [5] and in experiment [6] was > 30 µM (inactive) each time. In addition, the Kd in experiment [7], in experiment [8] and in experiment [9] was > 30 µM (inactive) throughout.

For the compound `COc1cc(Nc2ncc(F)c(Nc3ccc4c(n3)N(COP(=O)(O)O)C(=O)C(C)(C)O4)n2)cc(OC)c1OC` [FOSTAMATINIB], the Kd in [1], in experiment [2], in [3], in [4], in [5] and in [6] was > 30 µM (inactive) throughout. In addition, the Kd in experiment [7], in [8] and in experiment [9] was > 30 µM (inactive) in each case.

Take `NC[C@@](O)(c1ccc(Cl)cc1)c1ccc(-c2cn[nH]c2)cc1` [AT-13148]: the Kd in experiment [1], in experiment [2], in experiment [3], in experiment [4], in [5] and in experiment [6] was > 30 µM (inactive) in each case. Also, the Kd in [7], in [8] and in experiment [9] was > 30 µM (inactive) in each case.

Turning to `O=S(=O)(c1cccc2c(O)nccc12)N1CCCNCC1` [HYDROXYFASUDIL], the Kd in [1], in experiment [2], in experiment [3], in [4], in experiment [5] and in experiment [6] was > 30 µM (inactive) throughout. Moreover, the Kd in experiment [7], in [8] and in [9] was > 30 µM (inactive) throughout.

In the case of `Cc1c(NC(=O)OC[C@@H]2COCCN2)cn2ncnc(Nc3ccc4c(cnn4Cc4cccc(F)c4)c3)c12` [AC-480], the Kd in experiment [1], in experiment [2], in experiment [3], in experiment [4], in experiment [5] and in experiment [6] was > 30 µM (inactive) throughout. The Kd in experiment [7], in [8] and in [9] was > 30 µM (inactive) each time.

For `O[C@H]1CC[C@H](Nc2ncc3nc(Nc4c(F)cc(F)cc4F)n([C@H]4CCOC4)c3n2)CC1` [TANZISERTIB], the Kd in experiment [1], in experiment [2], in [3], in [4], in experiment [5] and in [6] was > 30 µM (inactive) in each case. Also, the Kd in experiment [7], in [8] and in [9] was > 30 µM (inactive) throughout.
